Measured values published in PubChem BioAssay AID179 (DTP/NCI, 2004).
Calls of active or inactive are those of the source.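 Rule for the calls: active = compounds giving half or more protection of infected cells from virus-caused growth loss, again on retest; inactive = the rest.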

System: CEM cells HIV-1 protection, formazan growth assay
Assay: NCI AIDS Antiviral Assay
Settings: for IC50: measured here: growth of uninfected CEM cells
Outline: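 Human CEM cells, uninfected and HIV-1-infected, exposed to five drug concentrations; growth measured by soluble formazan assay and scored as percent protection from infection, with protecting compounds retested.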

SMILES | outcome | EC50 | IC50
COc1ccc(-c2c(C)c(C)nc(Cl)c2C#N)c(OCc2ccccc2)c1OC | inactive | – | –
O=C(N/N=C(\c1ccccc1)c1ccccn1)NC1CCCCC1 | inactive | – | –
COc1cc2[nH]ncc(=S)c2cc1OC | – | 61.7 µM | 219 µM
CC(C)=CC1CC(=O)C1(C)Sc1ccccc1 (stereo not given) | – | > 40.7 µM | > 40.7 µM
O=[N+]([O-])C1C=Nc2ccccc2N=C1 | – | > 200 µM | > 200 µM
O=C(O)CN(CCO)CCN(CC(=O)O)CC(=O)O.[Fe+2] | – | > 200 µM | > 200 µM
CC1CC(C)(C)S(=O)(=O)O1 (stereo not given) | – | > 200 µM | > 200 µM
COc1cc(OC)c(/C=C\c2cc(/C=C/c3c(OC)cc(OC)cc3OC)c3ccccc3[n+]2C)c(OC)c1 | – | > 7.94 µM | 0.355 µM
CC1(C)O[C@H]2OC(CO[Si](C)(C)C(C)(C)C)C(N=[N+]=[N-])[C@H]2O1 (stereo not given in full) | – | > 20 µM | > 20 µM
CC1=C2CCC(O)CC2(C)C(O)C1C (stereo not given) | inactive | – | –
CCCCC1(C(=O)OCC)OC12CCCCC2 (stereo not given) | – | > 200 µM | > 200 µM
CC(C)c1cccc(C(C)C)c1NC(=O)C(=O)C1CCC2=C(Sc3ccccc3N2)C1=O (stereo not given) | – | > 204 µM | 2.24 µM
CC1(C(=O)NCCN(CCNC(=O)C2(C)CC3(C)CC(C)(C2)C(=O)NC3=O)CCNC(=O)C2(C)CC3(C)CC(C)(C2)C(=O)NC3=O)CC2(C)CC(C)(C1)C(=O)NC2=O (stereo not given) | inactive | – | –
COC(=O)Cc1c2c3n(c(=O)c1-n1[nH]c(=O)n(-c4ccc(Cl)cc4)c1=O)CCN3CCC2 | – | > 200 µM | > 200 µM
S=c1nn[nH]n1-c1ccccc1.[Cd] | – | > 42.7 µM | 32.4 µM
CCn1c2c(c3ccccc31)C(c1ccccc1)CC1C(=O)N(c3ccccc3)C(=O)C21 (stereo not given) | – | > 11.7 µM | > 11.7 µM
CCOC(=O)/C(=C/c1ccc(C#N)cc1)N(CC)CC | – | > 251 µM | > 251 µM

SMILES | outcome | EC50 | IC50
Cc1ccc(F)cc1NC(=O)O/N=C(\Cl)C(C)C | – | > 20 µM | 3.8 µM
Cc1cc(C)c(C(=O)c2ccccc2C(=O)O)c(C)c1 | – | > 200 µM | > 200 µM
O=C1CCC2(c3ccccc3)Nc3ccccc3N12 (stereo not given) | – | > 200 µM | 126 µM
CCCCCCCCCCCCCCCC(=O)Nc1ccn(C2CSC(COP(=O)(O)OC3CC(n4ccc(NC(=O)CCCCCCCCCCCCCCC)nc4=O)OC3CO)O2)c(=O)n1 (stereo not given) | – | 9.55 µM | > 200 µM
O=C(/C=C/c1ccccc1)CC(=O)c1ccccc1.O=C(/C=C/c1ccccc1)CC(=O)c1ccccc1.[Cu] | – | > 200 µM | 95.5 µM
O=C1/C(=C/c2ccc(OC(=O)c3ccc(Cl)cc3)cc2)CCC/C1=C\c1ccc(OC(=O)c2ccc(Cl)cc2)cc1 | – | > 100 µM | > 100 µM
Cc1ccc([N+](=O)[O-])cc1NC(=O)/C(CC(=O)c1sc(C(N)=S)nc1C)=N\N | inactive | – | –
CC1OC(Oc2c(-c3cc(O)c(O)c(O)c3)oc3cc(O)cc(O)c3c2=O)C(O)C(O)C1O (stereo not given) | inactive | – | –
CCOc1ccc(/C=C/C(=O)c2ccccc2)cc1 | – | > 200 µM | 34.7 µM
CC(C)(C)[Si](C)(C)OCC1OC(n2ccc(=O)[nH]c2=O)C(C/C=[N+](/[O-])CC2OC(n3ccc(=O)[nH]c3=O)C(O[Si](C)(C)C(C)(C)C)C2O[Si](C)(C)C(C)(C)C)C1O[Si](C)(C)C(C)(C)C (stereo not given) | – | > 100 µM | 89.1 µM
COc1cc2c(cc1OC)-c1cc3ccccc3c[n+]1CC2 | – | > 200 µM | > 200 µM
O=c1cc(O)c2c(O)cc(O)cc2o1 | – | > 200 µM | > 200 µM
CN(C)CCN1C(=O)c2cccc3cc([N+](=O)[O-])cc(c23)C1=O | – | > 200 µM | 0.0912 µM
COc1ccc2c(c1)CCCN1CCc3ccccc3C21 (stereo not given) | – | > 200 µM | 110 µM
O/N=C1/C(=C/c2ccc(Cl)cc2)CCCC1C(NO)c1ccc(Cl)cc1 (stereo not given) | – | > 13.5 µM | > 13.5 µM
CC(C)CCC[C@@H](C)C1CCC2C3CCC4C[C@@H](CCC=C(c5cc(F)c(O)c(C(=O)O)c5)c5cc(F)c(O)c(C(=O)O)c5)CC[C@]4(C)C3CC[C@@]21C (stereo not given in full) | – | 21.9 µM | > 200 µM
